From patent publication US11666056B2, “Methods and compositions for control of arthropod pests” (GREENLIGHT BIOSCIENCES, INC., priority 2019, dated 2023) come the findings set out here.

Series [1] in a line: Measured pH of preservative working solutions and of tested formulations. It counts as physicochemical. Here is the method:
Separate working solutions of sodium benzoate and potassium sorbate are prepared in citric buffer (pH 5.3) and pH is measured as shown in Table 3.
Five formulations (Table 7) using the citric buffer of Example 1A and the preservatives of Example 1B were tested to determine the stability of the trigger nucleic acid molecule (SEQ ID NO: 1) in a) only sucrose (control); b) sucrose with preservatives; c) sucrose and citric buffer; d) sucrose with equal amounts of each preservative in citric buffer; and e) sucrose with sodium benzoate to potassium sorbate in a 1:0.5 ratio in citric buffer.
Four additional formulations were created to test the ability of sodium benzoate alone to protect a dsRNA from degradation. Sodium benzoate was prepared in a solution with a pH of 4.5.

The conditions of series [2]: citric buffer (pH 5.3).
Setting [3] is: preservative 50 mg/mL in citric buffer (pH 5.3).

Take `C/C=C/C=C/C(=O)[O-].[K+]` [Potassium Sorbate]: the pH is reported as 6.13 in series [1] (setting [3]) and 8.8 in series [1] (preservative 100 mg/mL in ddH2O). In addition, in series [2], the “solubility in citric buffer” value is recorded as “low solubility”.

On to `O=C([O-])c1ccccc1.[Na+]` [Sodium Benzoate], for which the pH is 5.47 in series [1] (setting [3]) and 5.7 in series [1] (preservative 100 mg/mL in citric buffer).
